What was measured:
Test in all cases: relative viability (nuclei count vs DMSO), 5 days (fraction); higher = more cells survive
Navitoclax = compound: CC1(C)CCC(c2ccc(Cl)cc2)=C(CN2CCN(c3ccc(C(=O)NS(=O)(=O)c4ccc(N[C@H](CCN5CCOCC5)CSc5ccccc5)c(S(=O)(=O)C(F)(F)F)c4)cc3)CC2)C1 [Navitoclax]
Method in brief: (§1)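 Only plates meeting two conditions passed: control CV below 25% and at least one doubling. Lung cancer cell lines, kept overnight at 37 °C in 1536-well plates, were pinned with five library-drug doses (not always all listed) √10 apart on vehicle-anchored plates and grown 5 days without medium change. A one-step fix, permeabilisation and Hoechst stain preceded 4× imaging and MetaXpress nuclear counting. Viability equals treated-well nuclei divided by vehicle-well nuclei, as the median over plates.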

C-75 = compound: CCCCCCCC[C@H]1[C@@H](C(=C)C(=O)O1)C(=O)O [C-75]
Method in brief: as §1

AZD7762 = compound: NC(=O)Nc1cc(-c2cccc(F)c2)sc1C(=O)N[C@H]1CCCNC1 [AZD7762]
Method in brief: as §1

[1] = compound: O=C(O)c1ccc(-c2c[nH]c3ncc(-c4ccccc4)cc23)cc1C1CCCC1
Method in brief: as §1

XAV939 = compound: Oc1nc(-c2ccc(C(F)(F)F)cc2)nc2c1CSCC2 [XAV939]
Method in brief: as §1

Cell Line	relative viability (Navitoclax; 0.005 µM)	relative viability (Navitoclax; 0.01581 µM)	relative viability (Navitoclax; 0.05 µM)	relative viability (Navitoclax; 0.1581 µM)	relative viability (Navitoclax; 0.5 µM)	relative viability (Navitoclax; 0.5 µM, anchor plate)	relative viability (C-75; 0.08 µM)	relative viability (C-75; 0.253 µM)	relative viability (C-75; 0.8 µM)	relative viability (C-75; 2.53 µM)	relative viability (C-75; 8 µM)	relative viability (AZD7762; 0.01 µM)	relative viability (AZD7762; 0.03162 µM)	relative viability (AZD7762; 0.1 µM)	relative viability (AZD7762; 0.2 µM, anchor plate)	relative viability (AZD7762; 0.3162 µM)	relative viability (AZD7762; 1 µM)	relative viability ([1]; 0.04 µM)	relative viability ([1]; 0.1265 µM)	relative viability ([1]; 0.4 µM)	relative viability ([1]; 1.265 µM)	relative viability (XAV939; 0.08 µM)	relative viability (XAV939; 0.253 µM)	relative viability (XAV939; 0.8 µM)	relative viability (XAV939; 2.53 µM)
NCI-H441	0.981	1.07	1.06	1.11	0.986	0.701	1.14	1.09	0.907	0.764	0.957	1.11	1.2	1.05	1.14	1.34	1.03	1.01	1.08	0.817	0.6	1.18	0.962	1.1	1.04
NCI-H460	0.988	1.01	0.951	0.977	0.963	1.08	1.01	1.04	0.922	0.768	0.946	1.06	1	1.01	0.618	0.954	0.387	1.01	1.05	0.991	0.92	0.996	0.88	0.944	0.929
NCI-H520	0.997	0.925	1.14	0.99	0.94	1.12	1.02	1.21	0.952	0.615	0.825	1.09	1.01	0.972	–	0.89	0.337	1.03	0.894	1.01	0.902	1.09	0.965	0.87	0.928
NCI-H522	0.841	1.12	1.03	0.912	0.978	–	0.97	0.898	1.02	0.721	0.873	1.02	1.15	0.955	0.841	0.939	0.839	0.851	1.13	0.83	0.945	0.962	0.901	0.983	0.881
NCI-H596	1.07	0.942	0.711	0.964	1.04	0.936	1.01	1.14	0.909	0.852	0.997	1.07	1.08	1.08	1.1	0.929	0.891	0.927	0.982	1.02	0.971	1.1	1.02	1.11	1.03
NCI-H647	0.859	1.04	1.13	0.871	0.881	1.12	0.919	0.996	0.74	0.915	0.78	1.04	1.14	0.923	0.505	0.616	0.194	0.975	1.03	0.908	0.709	1.02	0.845	0.918	0.866
NCI-H650	0.908	0.97	0.956	0.853	1.04	–	0.916	0.875	0.862	0.87	0.817	1.08	1.05	0.905	1.03	0.954	0.914	0.908	1.03	0.77	0.67	1.03	1.08	0.99	0.824

— the supplement of paper PMC10307832
